According to patent US10660967B2, “Curcumin conjugates and methods of use thereof” (priority 2016, dated 2020):
Read-outs that look alike come from different tables or passages of the source.

What was measured:
gastric mucosa = assay: Ulcerogenic liability (ulcer index); type: in vivo, albino mice; conditions: orally, three successive days, 10 mg/kg indomethacin mol equivalent
Protocol: The ulcerogenic liability was investigated in albino mice using the standard method. […] The animals were fasted 18 h before drug administration. […] The control group animals were given saline solution only with few drops of Tween 80. […] The gastric mucosa was examined with a magnifying lens (10×) for the presence of lesions and erosions.
1. percentage incidence of ulcer divided by 10;
2. average number of ulcers per stomach; and
3. average severity of ulcers;

[1] = tested on: PHA-stimulated splenocytes; assay: Proliferative response of PHA-stimulated splenocytes (MTT assay); type: cell-based; conditions: PHA 5 μg/ml, 72 hr; compounds at 5 μM (method says 10 μM); ratio of O.D. versus vehicle control
Procedure, shortened: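 Readout was MTT absorbance (570 nm, reference 690 nm) after 72 h culture at 37° C. Splenocytes at 1×10^6 cells/well received test compound (10 μM final) alone or plus PHA 5 μg/ml as T-cell mitogen. Values are OD ratios of compound over vehicle control (stimulation index).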

[2] = tested on: lipopolysaccharide-stimulated peritoneal macrophages; assay: Production of nitric oxide by lipopolysaccharide-stimulated peritoneal macrophages (Greiss reagent); type: cell-based; set-up: Potency (%): % inhibition of nitric oxide production relative to lipopolysaccharide-stimulated macrophages: concentration or dose not given beside the values; conditions: LPS-stimulated peritoneal macrophages; for Nitric oxide (nitrite) concentration, μM (average ± SD): 24 h, nitrite by Greiss reagent
Procedure, shortened: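 NO output was quantified as accumulated nitrite, reacting supernatant with Greiss reagent (sulfanilamide/α-naphthylamine) and reading at 532 nm. Beforehand, cells had been incubated 24 h at 37° C. in nitrite-free, 0.1% BSA medium with 0.5–10 ng/ml LPS, with or without catecholamines at […].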

[3] = tested on: Salmonella typhi ATCC19430; assay: Antimicrobial MIC, agar dilution; type: cell-based; conditions: Salmonella enterica, read-out: Minimum inhibitory concentration (MIC)
[4] = tested on: HCT116 (colon) carcinoma cell line; assay: Anti-tumor properties, MTT; type: cell-based; conditions: Homo sapiens, HCT-116; HCT116, 100 μM, 72 h; read-out: Percentage growth of tumor cell lines treated with the tested compounds (±SD)
Protocol: (§1) Anti-tumor properties of curcumin conjugates were evaluated. The synthesized curcumin-amino acid conjugates and curcumin itself were screened for their antitumor properties against human tumor cell lines utilizing HepG2 (hepatocellular), MCF7 (breast), and HCT116 (colon) carcinoma cell lines by the standard mitochondrial dependent reduction of yellow MTT [3-(4,5-dimethylthiazol-2-yl)-2,5-diphenyl-tetrazolium bromide] to purple formazan technique. Cancer cells were obtained from the Egyptian Company for Production of Vaccines, Sera and Drugs (VACSERA), Cairo, Egypt. Media, chemicals and supplies for the bio-assay were obtained from Biowest, Gibco and Lonza Companies. Cells were suspended in RPMI-1640 medium for HepG2, DMEMF12 for MCF-7, and DMEM for HCT116 in addition to 1% antibiotic-antimycotic mixture (10 […] potassium penicillin, 10 […] streptomycin sulfate and […] amphotericin B), 10% fetal bovine serum and 1% L-glutamine at 37° C., under 5% CO2 and 95% humidity. Cells were seeded at a concentration of 10×10^3 cells per well in fresh complete growth medium in 96-well tissue culture microtiter plates for 24 h. Media was aspirated, 180 μL fresh medium (without serum) were added and cells were incubated with different concentrations of sample to give a final concentration of 100 μM. 0.5% DMSO was used as a negative control and doxorubicin was used as a positive control (standard reference). Triplicate wells were prepared for each individual tested compound/dose. After 72 h of incubation, the medium was aspirated, 40 μL MTT salt (2.5 mg ml^1) were added to each well and incubated for an additional 4 h at 37° C. To stop the reaction and dissolve the formed crystals, 200 μL of 10% sodium dodecyl sulfate (SDS) in deionized water were added to each well and incubated overnight at 37° C. The absorbance was then measured at 595 nm with a reference wavelength of 620 nm. Data were collected as mean values for experiments performed in triplicates for each compound which had been measured by MTT assay.
(§2) The percentage of cell survival was calculated according to equation (4): […]
(§3) The IC50 was determined using Graph-Pad PRISM version-5 software. Statistical calculations for determination of the mean and standard deviation (SD) values were determined by SPSS 16 software.

[5] = tested on: HepG2 (hepatocellular) carcinoma cell line; assay: Anti-tumor properties, MTT; type: cell-based; conditions: Homo sapiens; HepG2, 100 μM, 72 h; read-out: Percentage growth of tumor cell lines treated with the tested compounds (±SD)
Protocol: as §1, §2, §3

[6] = tested on: MCF7 (breast) carcinoma cell line; assay: Anti-tumor properties, MTT; type: cell-based; conditions: Homo sapiens; MCF7, 100 μM, 72 h; read-out: Percentage growth of tumor cell lines treated with the tested compounds (±SD)
Protocol: as §1, §2, §3

MCF-7 cells = assay: Effect on doxorubicin induced cytotoxicity (MTT); conditions: for Percentage of viable cells MCF-7 (average ± SD): 10 μM DOX in combination with 100 μM curcumin derivative, 48 hr; for viability at 100 µM: Homo sapiens, MCF7, 48 h, read-out: Percentage of viable cells MCF-7 (average ± SD)
Protocol: The effects of curcumin conjugates on doxorubicin induced cytotoxicity were evaluated. In order to further examine whether curcumin derivatives can enhance conventional chemotherapeutic agents, MCF-7 cells were treated with 100 μM curcumin derivatives alone or in combination with 10 μM doxorubicin (DOX) for 48 hr. Control cultures received only medium, vehicle (DMSO), or vehicle+DOX. The percentage of viable cells was determined by MTT assay according to equation (5): […]

[7] = tested on: Staphylococcus aureus ATCC25923; assay: Antimicrobial MIC, agar dilution
[8] = tested on: Streptococcus pyogenes ATCC19615; assay: Antimicrobial MIC, agar dilution
[9] = tested on: Pseudomonas aeruginosa ATCC27853; assay: Antimicrobial MIC, agar dilution
[10] = tested on: Candida albicans (local isolate); assay: Antimicrobial MIC, agar dilution; conditions: Candida albicans, read-out: Minimum inhibitory concentration (MIC)
[11] = ATCC25923, 18 h, read-out: Minimum inhibitory concentration (MIC)
[12] = ATCC25923, read-out: Minimum inhibitory concentration (MIC)
[13] = ATCC19615, 18 h, read-out: Minimum inhibitory concentration (MIC)
[14] = ATCC19615, read-out: Minimum inhibitory concentration (MIC)
[15] = ATCC27853, 18 h, read-out: Minimum inhibitory concentration (MIC)
[16] = ATCC27853, read-out: Minimum inhibitory concentration (MIC)

| SMILES | Stimulation Index (average ± SD) [1] | Potency (%): % inhibition of nitric oxide production relative to lipopolysaccharide-stimulated macrophages [2] [%] | Nitric oxide (nitrite) concentration, μM (average ± SD) [2] [µM] | MIC ([3]; 18 h) [µg/mL] | MIC [3] [µM] | activity at 100 µM [4] [%] | activity at 100 µM [5] [%] | activity at 100 µM [6] [%] | Percentage of viable cells MCF-7 (average ± SD) (MCF-7 cells) | viability at 100 µM (MCF-7 cells) [%] | MIC [7, 11] [µg/mL] | MIC [7, 12] [µM] | MIC [8, 13] [µg/mL] | MIC [8, 14] [µM] | MIC [9, 15] [µg/mL] | MIC [9, 16] [µM] | MIC ([10]; 18 h) [µg/mL] | MIC [10] [µM] | other results |
| --- | --- | --- | --- | --- | --- | --- | --- | --- | --- | --- | --- | --- | --- | --- | --- | --- | --- | --- | --- |
| COc1cc(/C=C/C(=O)CC(=O)/C=C/c2ccc(OC(=O)[C@H](CCSC)NC(=O)OCc3ccccc3)c(OC)c2)ccc1OC(=O)[C@H](CCSC)NC(=O)OCc1ccccc1 [Cbz-Met-Cur, ((1E,6E)-3,5-dioxohepta-1,6-diene-1,7-diyl)bis(2-methoxy-4,1-phenylene) (2S,2′S)-bis(2-(((benzyloxy)carbonyl)amino)-4-(methylthio)butanoate)] | 1.22 ± 0.29 | 44.44 | 15.17 ± 2.30 | 0.125 | 0.139 | 85.6 ± 2.4 | 85.4 ± 2.4 | 71 | 49.74 ± 0.33 | 96.3 ± 3.61 | 0.125 | 0.139 | 0.125 | 0.139 | 0.125 | 0.139 | 2 | 2.23 | % Incidence of ulcer divided by 10 (gastric mucosa): 3.33; Average of ulcer number (gastric mucosa): 0.33; Average severity of ulcer (gastric mucosa): 0.33; Number of animals with ulcer (gastric mucosa; 6 animals per group): 2/6; Ulcer index (gastric mucosa; sum of the three values): 3.99 |
| COc1cc(/C=C/C(=O)CC(=O)/C=C/c2ccc(OC(=O)[C@H](Cc3ccccc3)NC(=O)OCC3c4ccccc4-c4ccccc43)c(OC)c2)ccc1OC(=O)[C@H](Cc1ccccc1)NC(=O)OCC1c2ccccc2-c2ccccc21 [Fmoc-Phe-Cur, ((1E,6E)-3,5-dioxohepta-1,6-diene-1,7-diyl)bis(2-methoxy-4,1-phenylene) (2S,2′S)-bis(2-((((9H-fluoren-9-yl)methoxy)carbonyl)amino)-3-phenylpropanoate)] | 1.78 ± 0.10 | 31.01 | 18.84 ± 0.69 | 0.25 | 0.226 | 110 ± 7.3 | 108 ± 3.6 | 84.7 ± 3.6 | 42.49 ± 2.71 | 98.3 ± 2.21 | 0.25 | 0.226 | 0.125 | 0.113 | 2 | 1.81 | 0.5 | 0.452 |  |
| COc1cc(/C=C/C(=O)CC(=O)/C=C/c2ccc(OC(=O)[C@@H](NC(=O)OCC3c4ccccc4-c4ccccc43)C(C)C)c(OC)c2)ccc1OC(=O)[C@@H](NC(=O)OCC1c2ccccc2-c2ccccc21)C(C)C [Fmoc-Val-Cur, ((1E,6E)-3,5-dioxohepta-1,6-diene-1,7-diyl)bis(2-methoxy-4,1-phenylene) (2S,2′S)-bis(2-((((9H-fluoren-9-yl)methoxy)carbonyl)amino)-3-methylbutanoate)] | 2.55 ± 0.13 | 12.46 | 23.91 ± 0.87 | 0.5 | 0.494 | 81.8 ± 5.8 | 116 ± 3.3 | 83.2 ± 0.8 | 25.15 | 100 ± 1.95 | 0.25 | 0.247 | 0.5 | 0.494 | 0.5 | 0.494 | 0.5 | 0.494 |  |
